{"source": "paper PMC9652379", "about": "“Safety evaluations of a synthetic antimicrobial peptide administered intravenously in rats and dogs” (Scientific Reports, 2022)", "key": {"[1]": {"test": "Dose range finding in rats: toxicokinetics", "assay_type": "in vivo, rat", "conditions": "for quantifiable plasma concentrations until, post-dose: rat, in vivo; for mean AUCt ratio, low vs. high dose (theoretical ratio 2) / mean Cmax ratio, low vs. high dose (theoretical ratio 2): rats, 10 vs 20 mg/kg/day iv bolus", "protocol": "SET-M33 concentration was determined after administration by intravenous bolus for 7 days at 10 mg/kg/day and 20 mg/kg/day. Exposure parameters (AUCt and Cmax) were compared in order to evaluate dose-dependency, accumulation ratio and sex-related differences. […] Mean plasma levels of SET-M33 increased in parallel with dose in males and females. Mean time to maximum concentrations (tmax) were observed immediately after administration, 5 min post-dose for both periods (days 1 and 7) and sexes, coherently with intravenous bolus administration.\nBlood samples were collected from the retro-orbital plexus of animals under light isoflurane anaesthesia. Blood samples were taken from three males and three females at each extraction time. Sampling times were as follows: Day 1: 5, 15, 30 and 60 min after administration. Day 7: pre-dose and 5, 15, 30, 60 min and 24 h after administration. Control animals were bled only once on days 1 and 7 of treatment at 30 min after treatment. Each blood sample was collected into a polypropylene test tube containing lithium heparin as anticoagulant and kept in an ice bath until centrifuging (1600 g for 10 min at 2–8 °C). The plasma from each sample was transferred to a fresh polypropylene test tube, immediately frozen in dry ice and stored at − 20 °C ± 5."}, "Sprague Dawley rats": {"system": "Sprague Dawley rats", "test": "Four-week toxicity study with 2-week recovery in rats: mortality, clinical signs, body weight", "assay_type": "in vivo, rat", "conditions": "for weight loss of euthanized animal: 15 mg/kg/day", "protocol": "The purpose of this study was to evaluate the toxic effects of SET-M33 when administered intravenously to Sprague Dawley rats for 4 weeks. Recovery was evaluated during a 14-day drug-free period. The peptide was administered once a day at three dose levels at 5, 9 and 15 mg/kg/day, and the control group was treated with the vehicle (ten males and ten females per group which were sacrificed after 4 weeks for clinical and necroscopy analyses; five males and five females for the control and 15 mg/kg/day groups which were sacrificed after the 2 weeks recovery period). The higher dose was selected on the basis of the DRF study (above) in which evident toxicity was recorded at the dose of 20 mg/kg. The efficacy dose in mouse is 5 mg/kg[24]. The lowest dose of this test is approximately twice the equivalent efficacy dose in rat (using body surface area) and the intermediate dose is approximately the geometric mean of the other two.\nOne male died on day 8 and one male and one female were euthanized for animal welfare reasons on days 6 and 10 of the recovery period, respectively, after showing various clinical signs (hunched back, abnormal gait and pallor) and weight loss of 14% and 11%, respectively. SET-M33-related effects consisting of decreased motor activity, irregular breathing, piloerection, closed or partially closed eyelids, abnormal gait and hunched back were recorded in animals treated at 15 mg/kg/day just after administration for the whole treatment period (as in the DRF study above). […] Among animals that had to be sacrificed for welfare reasons, abnormal gait, partially closed eyelids (the male) and decreased motor activity and piloerection (the female) were also recorded from day 3 onwards. […] During the recovery period, body-weight loss (between 2 and 14% based on individual values) was recorded in some animals dosed at 15 mg/kg/day.\nViability/mortality was monitored twice daily throughout the study. Detailed clinical signs were evaluated once at pre-test, once/twice daily during the treatment period and on days 1, 8, 10 to 14 of the recovery period. […]"}, "rats": {"system": "rats", "test": "Respiratory function in rats (whole body plethysmography)", "assay_type": "in vivo, rat", "protocol": "The possible side-effects of SET-M33 on respiratory function were evaluated after administration of the peptide as a single intravenous bolus at doses of 5, 9 and 15 mg/kg with vehicle (eight animals/group). Respiratory rate, tidal volume and minute volume were assessed. As in the case of neurological toxicity and the 4-week toxicity study, again the dose levels were selected on the basis DRF (above). Baclofen, a muscle relaxer and antispasmodic used to treat muscle pain, spasms and stiffness in people with multiple sclerosis or spinal cord injury or disease, was used as positive control. It was administered as a single intravenous injection at a dose of 15 mg/kg.\nWhole body, bias flow plethysmography equipment was used[51]. Respiratory parameters (respiratory rate, tidal volume and minute volume) were derived from the changes in pressure associated with the warming and humidification of the air breathed in by the animal. This was monitored by specific probes located in the plethysmograph chambers. Bias flow (room air) was set at approximately 2.5 L/min. On a day prior to the first day of dosing, all animals were habituated to the plethysmographs for approximately 2 h. The study was run over 4 days and 10 animals (two from each group) were examined each day. On the day of dosing, the animals were placed in the plethysmographs for pre-dose recording (session 1) of respiratory parameters for 60 min. Groups of 8 rats were then removed from the chambers and dosed by intravenous bolus injection with vehicle, SET-M33 or positive control. Immediately after dosing, the rats were placed in the whole body plethysmographs, where they could move about freely, to continuously record respiratory parameters for 4 h post-dose (undisturbed recording). Immediately after the last post-dose recording, the animals were killed humanely by a rising concentration of carbon dioxide. Death was confirmed by dislocation of the neck. Respiratory parameters were reported at the following time points: 0, 30, 60, 90, 120, 150, 180, 210 and 240 min. Time 0 coincided with the mean value of the last 20 min of data recorded in the 60-min pre-dose period. All other time points were the mean of 10-min recordings (an average of every 10 breaths) around each time point. Each post-dose time point was analysed separately by analysis of covariance. Factors in the model were group and day of data collection, with pre-dose values as covariate."}, "K. pneumoniae": {"system": "K. pneumoniae", "conditions": "cited from earlier work"}}, "note": "Positions of bridges follow the written chain, without caps; N, C: chain ends. Non-standard residues stand in square brackets, D forms with d. Residues, ends and D or L forms follow the SMILES beside them. Chains are numbered I, II in the order given. βAla = NCCC(=O)O"}
{"smiles": "CC[C@H](C)[C@H](NC(=O)[C@H](CCCCN)NC(=O)[C@@H](N)CCCCN)C(=O)N[C@@H](CCCNC(=N)N)C(=O)N[C@H](C(=O)N[C@@H](CCCNC(=N)N)C(=O)N[C@@H](CC(C)C)C(=O)N[C@@H](CO)C(=O)N[C@@H](C)C(=O)NCCCC[C@H](NC(=O)[C@H](C)NC(=O)[C@H](CO)NC(=O)[C@H](CC(C)C)NC(=O)[C@H](CCCNC(=N)N)NC(=O)[C@@H](NC(=O)[C@H](CCCNC(=N)N)NC(=O)[C@@H](NC(=O)[C@H](CCCCN)NC(=O)[C@@H](N)CCCCN)[C@@H](C)CC)C(C)C)C(=O)NCCCC[C@H](NC(=O)[C@H](CCCCNC(=O)[C@H](C)NC(=O)[C@H](CO)NC(=O)[C@H](CC(C)C)NC(=O)[C@H](CCCNC(=N)N)NC(=O)[C@@H](NC(=O)[C@H](CCCNC(=N)N)NC(=O)[C@@H](NC(=O)[C@H](CCCCN)NC(=O)[C@@H](N)CCCCN)[C@@H](C)CC)C(C)C)NC(=O)[C@H](C)NC(=O)[C@H](CO)NC(=O)[C@H](CC(C)C)NC(=O)[C@H](CCCNC(=N)N)NC(=O)[C@@H](NC(=O)[C@H](CCCNC(=N)N)NC(=O)[C@@H](NC(=O)[C@H](CCCCN)NC(=O)[C@@H](N)CCCCN)[C@@H](C)CC)C(C)C)C(=O)NCCC(=O)O)C(C)C", "note": "[SET-M33] (I: H-KKIRVRLSAKK[βAla]-OH / II: H-KKIRVRLSAK / III: H-KKIRVRLSA / IV: H-KKIRVRLSA; amide I:10-IV:C, I:11-II:C, II:10-III:C (inferred); N-terminus and C-terminus assumed)", "values": [{"measurement": "quantifiable plasma concentrations until, post-dose", "setting": "[1]", "value": 1, "unit": "h"}, {"measurement": "quantifiable plasma concentrations until, post-dose", "setting": "[1]; iv, 10 mg/kg/day", "value": "0.5 to 1", "unit": "h"}, {"measurement": "quantifiable plasma concentrations until, post-dose", "setting": "[1]; iv, 20 mg/kg/day", "value": "up to 24 h"}, {"measurement": "mean AUCt ratio, low vs. high dose (theoretical ratio 2)", "setting": "[1]; day 1", "value": 2.2}, {"measurement": "mean Cmax ratio, low vs. high dose (theoretical ratio 2)", "setting": "[1]; day 1", "value": "2.4 to 2.7"}, {"measurement": "mean AUCt ratio, low vs. high dose (theoretical ratio 2)", "setting": "[1]; day 7", "value": "9.8–14.0"}, {"measurement": "mean Cmax ratio, low vs. high dose (theoretical ratio 2)", "setting": "[1]; day 7", "value": "2.8–7.2"}, {"measurement": "weight loss of euthanized animal", "setting": "Sprague Dawley rats; one female rat, euthanized day 10 of recovery", "value": 11, "unit": "%"}, {"measurement": "weight loss of euthanized animal", "setting": "Sprague Dawley rats; one male rat, euthanized day 6 of recovery", "value": 14, "unit": "%"}, {"measurement": "mortality", "setting": "Sprague Dawley rats; rats, 5, 9 and 15 mg/kg/day iv 4 weeks + 2-week recovery", "value": "Mortality was only recorded at 15 mg/kg/day"}, {"measurement": "minute volume vs vehicle", "setting": "rats; rats, 15 mg/kg single iv bolus, 30 min post-dose, subsided by 60 min", "value": "statistically significant increase"}, {"measurement": "effects on respiratory rate, tidal volume or minute volume", "setting": "rats; rats, 5, 9 and 15 mg/kg single iv bolus, 4 h post-dose, n=8/group", "value": "did not produce any statistically significant adverse effects"}, {"measurement": "MIC50", "setting": "K. pneumoniae", "value": 1.4, "unit": "µM"}, {"measurement": "MIC90", "setting": "K. pneumoniae", "value": 2.8, "unit": "µM"}]}
